According to the NIST ThermoML archive (doi:10.1021/je400468z):
Where “and” joins values, the source holds several entries; their conditions need not be identical. Equal entries are not always repeated. Numbers after ± are expanded uncertainties.

Test: relative permittivity at various frequencies (dimensionless)
Details: Liquid, Frequency=0.001 MHz, Coaxial cylinder capacitor

For `CCCCCCC` [heptane], the relative permittivity (303.56 K, 320.13 kPa) was 1.90973 ± 0.00074, the relative permittivity (303.56 K, 1121.5 kPa) was 1.91097 ± 0.00073 and the relative permittivity (303.56 K, 5049.5 kPa) was 1.9172 ± 0.00073. For the same molecule, the relative permittivity (303.56 K, 10111 kPa) was 1.92498 ± 0.00073, the relative permittivity (303.56 K, 20218 kPa) was 1.93899 ± 0.00074 and the relative permittivity (303.56 K, 20219 kPa) was 1.93899 ± 0.00074. For the same molecule, the relative permittivity (303.56 K, 30315 kPa) was 1.95162 ± 0.00073, the relative permittivity (303.56 K, 30317 kPa) was 1.95171 ± 0.00073 and the relative permittivity (303.56 K, 40408 kPa) was 1.96324 ± 0.00073. The relative permittivity (303.56 K, 50515 kPa) was 1.97403 ± 0.00075, the relative permittivity (303.56 K, 60608 kPa) was 1.98391 ± 0.00075 and the relative permittivity (333.15 K, 327.25 kPa) was 1.86971 ± 0.00075. The relative permittivity (333.15 K, 1134.1 kPa) was 1.87125 ± 0.00074, the relative permittivity (333.15 K, 5058.1 kPa) was 1.87892 ± 0.00074 and the relative permittivity (333.15 K, 5509 kPa) was 1.87899 ± 0.00074. The relative permittivity (333.15 K, 10118 kPa) was 1.88834 ± 0.00073, the relative permittivity (333.15 K, 10122 kPa) was 1.88832 ± 0.00073 and the relative permittivity (333.15 K, 20230 kPa) was 1.90484 ± 0.00074. The relative permittivity (333.15 K, 20232 kPa) was 1.90482 ± 0.00074, the relative permittivity (333.15 K, 30327 kPa) was 1.91942 ± 0.00074 and the relative permittivity (333.15 K, 30328 kPa) was 1.91944 ± 0.00074. The relative permittivity (333.15 K, 40419 kPa) was 1.93256 ± 0.00073, the relative permittivity (333.15 K, 50511 kPa) was 1.9444 ± 0.00073 and the relative permittivity (333.15 K, 60625 kPa) was 1.95543 ± 0.00075. It also gave a relative permittivity (363.01 K, 328.75 kPa) of 1.82615 ± 0.00073, a relative permittivity (363.01 K, 1138 kPa) of 1.82815 ± 0.00073 and a relative permittivity (363.01 K, 5057.6 kPa) of 1.83786 ± 0.00072. The relative permittivity (363.01 K, 5062.5 kPa) was 1.83787 ± 0.00072, the relative permittivity (363.01 K, 10125 kPa) was 1.84924 ± 0.00074 and the relative permittivity (363.01 K, 20232 kPa) was 1.86884 ± 0.00073 and 1.86885 ± 0.00073. It also gave a relative permittivity (363.01 K, 30330 kPa) of 1.8855 ± 0.00072, a relative permittivity (363.01 K, 30332 kPa) of 1.88575 ± 0.00072 and a relative permittivity (363.01 K, 40413 kPa) of 1.90054 ± 0.00074. It also gave a relative permittivity (363.01 K, 50513 kPa) of 1.9141 ± 0.00073, a relative permittivity (363.01 K, 60612 kPa) of 1.9264 ± 0.00073 and a relative permittivity (363.01 K, 60613 kPa) of 1.92636 ± 0.00073.
